In patent US20230348378A1, “SMALL MOLECULE ALBUMIN BINDERS” (Oregon Health & Science University, priority 2020, published 2023):
Starred links: 1 amine or outer side, 2 acyl side, 3 side chain; linkers in the order of their positions; H or OH if unused. Positions of bridges follow the written chain, without caps; N, C: chain ends. Non-standard residues stand in square brackets, D forms with d. Residues, ends and D or L forms follow the SMILES beside them. *: point of attachment. DOTA = O=C(O)CN1CCN(CC(=O)O)CCN(CC(=O)*)CCN(CC(=O)O)CC1; NH(CH2CH2O)4CH2CO = O=C(COCCOCCOCCOCCN[*:1])[*:2]; X2 = O=C(CCCc1ccc(C(F)(F)F)c(F)c1)*; X1 = O=C(CCCc1ccc(C(F)(F)F)cc1)*

Assays:
PSMA+ PC3pip xenograft = system: PSMA+ PC3pip xenograft; design: species or system mice; settings: mouse, in vivo
Method: Biodistribution studies were performed 2 weeks after the tumor inoculation, when the size of tumor reached 5 mm. ^111In-labeled albumin binder-radioligand conjugates (1.85 MBq, 100 μL) were then administered via a lateral tail vein. The mice were sacrificed at 1, 2, 16, 24, or 48 h post-injections. Selected organs were collected and weighed, and the radioactivity was measured by the γ counter (Packard, Cobra E5003). The results were calculated as percentage of the injected dose per gram of mass (% ID/g).

BxPC3 xenograft = assay: Biodistribution in mice bearing BxPC3 xenograft; format: in vivo
[1] = biological target: human serum albumin (HSA) (Homo sapiens, UniProt P02768); assay: In vitro albumin protein binding ultrafiltration assay; settings: for change of albumin binding affinity versus the corresponding ABX conjugate: D-ABCF3 vs ABCF3, hABCF3P vs ABCF3P, hABF3P vs ABF3P, εABCF3 vs ABCF3
Chain of human serum albumin (HSA) (P02768 25-609): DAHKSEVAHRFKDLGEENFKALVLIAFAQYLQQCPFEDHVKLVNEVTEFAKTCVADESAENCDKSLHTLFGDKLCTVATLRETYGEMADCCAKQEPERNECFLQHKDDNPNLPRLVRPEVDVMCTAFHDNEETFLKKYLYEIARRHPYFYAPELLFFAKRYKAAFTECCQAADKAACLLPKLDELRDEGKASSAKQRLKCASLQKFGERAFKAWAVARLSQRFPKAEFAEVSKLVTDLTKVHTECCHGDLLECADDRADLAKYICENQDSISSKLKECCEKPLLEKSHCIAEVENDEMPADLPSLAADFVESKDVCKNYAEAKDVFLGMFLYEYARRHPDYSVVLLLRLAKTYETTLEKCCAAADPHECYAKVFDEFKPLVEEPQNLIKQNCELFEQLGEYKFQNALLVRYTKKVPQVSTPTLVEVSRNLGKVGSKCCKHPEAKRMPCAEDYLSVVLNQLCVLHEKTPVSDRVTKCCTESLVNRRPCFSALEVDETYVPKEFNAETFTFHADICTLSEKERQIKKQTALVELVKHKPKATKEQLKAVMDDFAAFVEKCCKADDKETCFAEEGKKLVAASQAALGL
Method: Following the published protocol, ultrafiltration assay was performed to assess albumin-binding properties of ^111In or ^64Cu labeled albumin binder-radioligand conjugates. ^111In or ^64Cu radiolabeling was conducted in NH4OAc (0.2 M, pH=7.0) buffer at 80° C. for 30 min with a specific activity of 3.7 MBq/nmol (100 μCi/nmol). The resulting albumin binder-radioligand conjugate (10 μL, 10 μM) was mixed with 100 μL human serum albumin (HSA, 1.0 mM in PBS 1×) and 90 μL PBS, followed by shaking gently at 37° C. for 30 min. After the incubation, 80 μL of each solution was loaded on the Zeba™ spin desalting column (7K MWCO) and centrifuged at 1500 g for 2 min. Radioactivity in 20 μL of each filtration and 10 μL mixture (before filtration) were quantified by the γ counter. The filtration rate of each sample was calculated as filtered counts/(mixture counts×2)×100%, all obtained results were then normalized by setting standard ABCF3 moiety as 74.4%. for the comparison purpose. The experiment was performed with triplicates. For working curve, different final concentrations of HSA varied from 10-1500 μM were used, followed the same protocol.

[2] = in vivo evaluation of FRGD without albumin binder
[3] = filtration assay, [HSA]=500 μM, [tracers]=0.5 μM

O=C(O)CC[C@H](NC(=O)N[C@@H](CCCCNC(=O)[C@H](Cc1ccc2ccccc2c1)NC(=O)[C@H]1CC[C@H](CNC(=O)[C@H](CCCCNC(=O)CN2CCN(CC(=O)O)CCN(CC(=O)O)CCN(CC(=O)O)CC2)NC(=O)CCC(=O)N[C@@H](CCCCNC(=O)CCCc2ccc(C(F)(F)F)cc2)C(=O)O)CC1)C(=O)O)C(=O)O (64Cu complex, metal not drawn) [PSMA617-ABCF3]
increase of specific tumor uptake compared to PSMA617 (PSMA+ PC3pip xenograft): > 2 × | tumor/nontumor ratios compared to PSMA617 (PSMA+ PC3pip xenograft): enhance tumor/nontumor ratios

CC(C)C[C@@H]1NC(=O)[C@H](CC(=O)O)NC(=O)CNC(=O)[C@H](CCCNC(=N)N)NC(=O)[C@H](Cc2ccccc2)NC(=O)[C@H](CCCCN)N(C)C(=O)[C@H]2CCCN2C(=O)[C@H](Cc2ccccc2)NC(=O)[C@H](C)NC1=O (111In complex, metal not drawn) [FRGD]
kidney uptake (BxPC3 xenograft; 111In labeled, without ABCF3): very high | non-tumor uptakes (BxPC3 xenograft; [2]): high non-tumor uptakes | tumor uptake (BxPC3 xenograft; [2]): relatively low tumor uptake

[N-]=[N+]=NCCCC[C@H](NC(=O)CN1CCC(CC(=O)O)CCN(CC(=O)O)CCN(CC(=O)O)CC1)C(=O)NCCCCCC(=O)N[C@@H](CCCCNC(=O)CCCc1ccc(C(F)(F)F)cc1)C(=O)O (some centres unmarked) [ABCF3]
filtration percentage (normalized) ([1]; 64Cu-labeled DOTA-albumin binder conjugate, [HSA]=500 μM, [tracers]=0.5 μM, value set as normalisation standard (average)): 75%

[N-]=[N+]=NCCCC[C@H](NC(=O)CN1CCC(CC(=O)O)CCN(CC(=O)O)CCN(CC(=O)O)CC1)C(=O)NCCCCCC(=O)N[C@H](CCCCNC(=O)CCCc1ccc(C(F)(F)F)cc1)C(=O)O (stereo partly drawn) [D-ABCF3]
change of albumin binding affinity versus the corresponding ABX conjugate [1, 3]: slightly increased binding affinity

CC(C)C[C@@H]1NC(=O)[C@H](CC(=O)O)NC(=O)CNC(=O)[C@H](CCCNC(=N)N)NC(=O)CNC(=O)[C@H]([C@@H](C)O)NC(=O)[C@@H](NC(=O)[C@H](CCCNC(=N)N)NC(=O)CNC(=O)CN2CCN(CC(=O)O)CCN(CC(=O)O)CCN(CC(=O)O)CC2)CSSC[C@@H](C(=O)N[C@@H](Cc2ccc(O)cc2)C(=O)N2CCC[C@H]2C(=O)N[C@@H](CC(=O)O)C(=O)NCCOCCOCCOCCOCC(=O)N[C@@H](CCCCNC(=O)CCCc2ccc(C(F)(F)F)c(F)c2)C(=O)O)NC(=O)[C@H](CC(C)C)NC(=O)[C@H](CCCNC(=N)N)NC(=O)CNC1=O [SFLAP3-ABCF3-3F] ({DOTA}-GRCTGRGDLGRLCYPD[NH(CH2CH2O)4CH2CO]K(X2)-OH; disulfide 3-13)
in vivo performance (biodistribution, tumor/nontumor ratios) (BxPC3 xenograft; SFLAP3 conjugates with various ABX, 24 h): best in vivo performance among all the tested ABX

CC(C)C[C@@H]1NC(=O)[C@H](CC(=O)O)NC(=O)CNC(=O)[C@H](CCCNC(=N)N)NC(=O)CNC(=O)[C@H]([C@@H](C)O)NC(=O)[C@@H](NC(=O)[C@H](CCCNC(=N)N)NC(=O)CNC(=O)CN2CCN(CC(=O)O)CCN(CC(=O)O)CCN(CC(=O)O)CC2)CSSC[C@@H](C(=O)N[C@@H](Cc2ccc(O)cc2)C(=O)N2CCC[C@H]2C(=O)N[C@@H](CC(=O)O)C(=O)NCCOCCOCCOCCOCC(=O)N[C@@H](CCCCNC(=O)CCCc2ccc(C(F)(F)F)cc2)C(=O)O)NC(=O)[C@H](CC(C)C)NC(=O)[C@H](CCCNC(=N)N)NC(=O)CNC1=O [SFLAP3-ABCF3] ({DOTA}-GRCTGRGDLGRLCYPD[NH(CH2CH2O)4CH2CO]K(X1)-OH; disulfide 3-13)
percentage bound to albumin protein ([1]; 64Cu-labeled, filtration assay, FIG. 6): ~75%

[N-]=[N+]=NCCCC[C@H](NC(=O)CN1CCN(CC(=O)O)CCN(CC(=O)O)CCN(CC(=O)O)CC1)C(=O)NCCCCCC(=O)N[C@H](CCCCCNC(=O)CCc1cc(F)c(F)c(F)c1)C(=O)O [hABF3P]
change of albumin binding affinity versus the corresponding ABX conjugate [1, 3]: slightly increased binding affinity

[N-]=[N+]=NCCCC[C@H](NC(=O)CN1CCN(CC(=O)O)CCN(CC(=O)O)CCN(CC(=O)O)CC1)C(=O)NCC(=O)NCCCC[C@H](NCCC(=O)NCCCCc1ccc(C(F)(F)F)cc1)C(=O)O [εABCF3]
change of albumin binding affinity versus the corresponding ABX conjugate [1, 3]: significantly decrease its binding affinity
